In experiment [1] the target is T1, TGFBR1 (ALK5) (Homo sapiens, UniProt P36897).
T1 sequence (P36897 34-503): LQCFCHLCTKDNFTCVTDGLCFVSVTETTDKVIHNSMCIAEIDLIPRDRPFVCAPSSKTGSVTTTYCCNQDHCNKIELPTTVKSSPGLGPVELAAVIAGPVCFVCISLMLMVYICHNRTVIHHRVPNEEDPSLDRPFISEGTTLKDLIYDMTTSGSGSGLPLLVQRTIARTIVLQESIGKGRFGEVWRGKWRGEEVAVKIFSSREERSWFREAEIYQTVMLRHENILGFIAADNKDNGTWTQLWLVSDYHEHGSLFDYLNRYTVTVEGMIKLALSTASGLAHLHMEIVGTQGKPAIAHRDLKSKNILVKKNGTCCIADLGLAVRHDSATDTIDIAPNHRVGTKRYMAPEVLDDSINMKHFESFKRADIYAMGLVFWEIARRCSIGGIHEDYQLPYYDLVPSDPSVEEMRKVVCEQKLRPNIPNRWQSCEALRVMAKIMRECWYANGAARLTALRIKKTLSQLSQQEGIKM
The experiment can be described thus: ALK5 kinase assay (LanthaScreen Terbium labeled TR-FRET). Format: biochemical. The settings on record: for inhibition at 0.1 µM: 100 nM concentration of compound, read-out: Enzyme Activity TGFBR1 (ALK5) % Inhibition at 100 nM. Here is the method: ALK5 Kinase Assay for IC50 Determination:
IC50 values of compounds against TGFβ kinase was determined by LanthaScreen™ Terbium Labeled TR-FRET assay. Kinase assays were performed in IX kinase buffer (# PV6135, Invitrogen, Life Technologies Grand Island, N.Y.) where total reaction volume was 10 μL in low-volume 384-well plates (#4511,Corning). Serially diluted compounds (3-fold) were incubated with TGFβ kinase (6 nM) for 10 min, following which a mixture of ATP (10 μM) (# A1852, Sigma, St-Louis, Mo.) and fluorescent-PolyGT substrate (200 nM) (# PV3610, Invitrogen, Life Technologies Grand Island, N.Y.) was added and incubated in dark at room temperature for 1 h. After 1 h, 10 μL stop solution containing Terbium labeled antibody (4 nM) (# PV3529, Invitrogen, Life Technologies Grand Island, N.Y.) and EDTA (# E5134, Sigma, St-Louis, Mo.) (20 mM) in TR-FRET dilution buffer (# PV3574, Invitrogen, Life Technologies Grand Island, N.Y.) was added. Readings were taken in a Synergy Neo Plate reader (BioTek, Winooski) at single excitation of 340 nm and Dual emission at 495 nm and 520 nm respectively.
The % activity of test samples was calculated as (Sample−Min)×100/(Max−Min). [Max: DMSO control, complete reaction with enzyme with DMSO and Min: No enzyme with DMSO]. Percent inhibition (100-% activity) was fitted to the “four-parameter logistic model” in XLfit for determination of IC50 values.
(In general: TR-FRET usually uses a lanthanide donor and a delayed reading to cut background.)

For experiment [2], the target named is T2, MAPK14/p38α kinase (Homo sapiens, UniProt Q16539).
T2 construct: purchased ThermoFisher PV3304
T2 sequence (Q16539 whole entry): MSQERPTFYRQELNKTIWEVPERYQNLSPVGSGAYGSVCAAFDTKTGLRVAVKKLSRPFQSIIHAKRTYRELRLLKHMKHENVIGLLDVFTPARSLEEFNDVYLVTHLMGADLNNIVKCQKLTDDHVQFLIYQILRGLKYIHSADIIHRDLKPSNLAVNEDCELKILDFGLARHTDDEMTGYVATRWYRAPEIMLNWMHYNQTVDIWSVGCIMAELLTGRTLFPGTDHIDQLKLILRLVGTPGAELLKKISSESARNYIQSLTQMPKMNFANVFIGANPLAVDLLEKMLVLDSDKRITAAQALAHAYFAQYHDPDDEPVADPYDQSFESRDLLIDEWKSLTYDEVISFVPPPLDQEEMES
The experiment can be described thus: MAPK14/p38α kinase assay (LanthaScreen TR-FRET). In kind it is biochemical. The settings on record: for IC50: Table 3, read-out: IC50 (P38 alpha); for inhibition at 0.1 µM: 100 nM concentration of compound. Here is the method:
MAPK14/p38α Kinase Assay for IC50 Determination:
IC50 values of compounds against MAPK14/P38α kinase were determined by Lanthascreen based TR-FRET assay. Kinase reactions were performed in a 10 μL volume in low-volume 384-well plates. The concentration of substrate was maintained at 400 nM in the assay, and the kinase reaction buffer (1×; Cat # PV3189, ThermoFisher) consisted of 50 mM HEPES pH 7.5, 0.01% BRIJ-35, 10 mM MgCl2, and 1 mM EGTA. Serially diluted compounds (3-fold) in DMSO (0.5% in final reaction) were incubated with cocktail of MAPK14/p38α kinase (20 ng/ml; Cat # PV3304, ThermoFisher), Substrate GFP-ATF2 (19-96), (0.4 μM; Cat # PV4445, ThermoFisher), ATP (90 μM; Cat # PV3227, ThermoFisher) and buffer. Kinase reactions were allowed to proceed for 1 hour at room temperature before EDTA (10 mM; Cat # P2825, ThermoFisher) and LanthaScreen™ Tb-antipATF2 (pThr71) Antibody (2 nM; Cat # PV4451, ThermoFisher) in TR-FRET dilution buffer (IX; Cat # PV3574, ThermoFisher) were added. The plate was allowed to incubate at room temperature for 30 minutes before being read on a BMG Pherastar plate reader using the LanthaScreen™ filter block for LanthaScreen™ TR-FRET.
The resulting TR-FRET emission ratio was plotted against the concentration of inhibitor, and the data was fit to a sigmoidal dose-response curve with a variable slope. The IC50 for the inhibitor was calculated from the curve.

Experiment [3] concerns Panc-1. The experiment can be described thus: Cell viability assay (resazurin, 96 hr) in Panc-1. Format: cell-based. The note with it: Homo sapiens; Panc-1 pancreatic cell line, 96 hr exposure; read-out: Panc-1_Cell Viability_IC50. The protocol: (§1) Cell Viability Assay in MIA PaCa-2 and Panc-1
(§2) MIA PaCa-2 (ATCC® CRL-1420™) and Panc-1 (CRL-1469™), both pancreatic cell lines were seeded in their respective medium (DMEM, Cat #10569044 with 10% FBS, Cat #16000044; Gibco for Panc-1 and an additional 2.5% Horse Serum, Cat #16050122; Gibco for MIA PaCa-2) at a cell count of 3000 cells per 100 μl per well in a 96 well edge plate (167425; ThermoFisher). Cells were allowed to grow at 37° C. for 24 hr in 5% CO2 (culture conditions) in a Nuaire incubator (humidified). Serially diluted compounds (100 μl) were added to the culture plate 24 hr later and the cultures (MIA PaCa-2 and Panc-1) were further incubated in culture conditions for 96 hr. Experiment was terminated at the completion of 96 hr exposure to the drug by replacing the medium with 100 μl of 1 mM of resazurin (R7017; Sigma) prepared in culture medium and the plates were further incubated in culture conditions for 4 hr. Fluorescence was then measured using a multimodal plate reader (Biotek Synergy Neo) at an excitation wavelength of 535 nm and emission wavelength of 590 nm to obtain relative fluorescence units. Data analysis was done by subtracting the background fluorescence (only medium blank) value from each reading and then normalizing with the vehicle control (DMSO treated cells) to obtain percent survival/proliferation. Percent survival at different doses was used to calculate IC50 by fitting the curve to the “four-parameter variable slope logistic model” using Prism Graph Pad.
(In general: Resazurin is reduced to fluorescent resorufin, in cell work by metabolically active cells.)

Experiment [4] has as its system MIA PaCa-2. Description: Cell viability assay (resazurin, 96 hr) in MIA PaCa-2. Format: cell-based. The settings on record: Homo sapiens; MIA PaCa-2 pancreatic cell line, 96 hr exposure; read-out: MiaPaCa-2_Cell Viability_IC50. Here is the method: as §1, §2
[5] abbreviates: read-out: Enzyme Activity MAPK14 (p38 alpha) % Inhibition at 100 nM.
Where [6] appears, read: Table 4, read-out: Enzyme Activity MAPK14 (p38alpha) % Inh at 100 nM.

Structures can show the parent of a compound that is named as a salt. Where two headings read alike, the source gives them in different places.

Take `CC(C)c1cnc(-c2ccc(F)cc2)cc1Nc1ccnc2[nH]cc(C(=O)C(N)=O)c12` [Compound No. 19, 2-(4-((2-(4-fluorophenyl)-5-isopropylpyridin-4-yl)amino)-1H-pyrrolo[2,3-b]pyridin-3-yl)-2-oxoacetamide hydrochloride]: the IC50 in experiment [1] (Table 3, read-out: IC50 (ALK5)) came to 278 nM; in experiment [2] it was 1760 nM; in experiment [3] it was 23.2 µM; in experiment [4], 15.5 µM.

Regarding `CC(C)c1cnc(-c2ccc(F)cc2)nc1Nc1ccnc2[nH]cc(N3CCCCC3)c12` [Compound No. 3, N-(2-(4-fluorophenyl)-5-isopropylpyrimidin-4-yl)-3-(piperidin-1-yl)-1H-pyrrolo [2,3-b] pyridin-4-amine hydrochloride], the results for the inhibition at 0.1 µM in experiment [1] and in experiment [2] (setting [5]) were 72% and 42%, respectively. Moreover, the results for the IC50 in experiment [3] and in experiment [4] were above 27 µM and above 30 µM, respectively.

On to `CC(C)c1cnc(-c2ccccc2)nc1Nc1ccnc2[nH]cc(C(=O)C(N)=O)c12` [Compound No. 26, 2-(4-((5-isopropyl-2-phenylpyrimidin-4-yl)amino)-1H-pyrrolo[2,3-b]pyridin-3-yl)-2-oxoacetamide hydrochloride], for which the IC50 in experiment [1] (Table 3, read-out: IC50 (ALK5)) was 602 nM; in experiment [2], 244 nM; in experiment [3] it was above 30 µM; in experiment [4], 2.19 µM.

For the compound `CC(C)c1cnc(-c2ccc(F)cc2)nc1Nc1ccnc2[nH]cc(N3CCNC(=O)C3)c12` [Compound No. 10, 4-(4-(2-(4-fluorophenyl)-5-isopropylpyrimidin-4-ylamino)-1H-pyrrolo [2,3-b]pyridin-3-yl) piperazin-2-one formate], the IC50 in experiment [1] (Table 4, read-out: ALK5 IC50) came out at 303 nM; in experiment [3], 2.73 µM; in experiment [4] it was 3.46 µM. Also, the inhibition at 0.1 µM in experiment [2] (setting [6]) turned out to be 28%.

Take `CC(C)c1cnc(-c2ccc(F)cc2)nc1Nc1ccnc2[nH]cc(N3CCOCC3)c12` [Compound No. 5, N-(2-(4-fluorophenyl)-5-isopropylpyrimidin-4-yl)-3-morpholino-1H-pyrrolo [2,3-b] pyridin-4-amine hydrochloride]: the inhibition at 0.1 µM was 88% in experiment [1] and 7% in experiment [2] (setting [5]). In addition, the IC50 in experiment [3] and in experiment [4] was above 30 µM throughout.

Take `CNC(=O)C(=O)c1c[nH]c2nccc(Nc3nc(-c4cc(Cl)ccc4F)ncc3C(C)C)c12` [Compound No. 18, 2-(4-((2-(5-chloro-2-fluorophenyl)-5-isopropylpyrimidin-4-yl)amino)-1H-pyrrolo[2,3-b]pyridin-3-yl)-N-methyl-2-oxoacetamide hydrochloride]: the IC50 in experiment [1] (Table 3, read-out: IC50 (ALK5)) was above 5000 nM; in experiment [2], 349 nM; in experiment [3], above 30 µM; in experiment [4], above 30 µM.

As to `CC(C)c1cnc(-c2ccc(F)cc2)nc1Nc1cccc2[nH]cc(C(=O)C(N)=O)c12` [Compound No. 28, 2-(4-(2-(4-fluorophenyl)-5-isopropylpyrimidin-4-ylamino)-1H-indol-3-yl)-2-oxoacetamide hydrochloride], the IC50 in experiment [1] (Table 4, read-out: ALK5 IC50) was above 5000 nM; in experiment [3], above 30 µM; in experiment [4], above 30 µM. For the same compound, in experiment [2] (setting [6]), the inhibition at 0.1 µM was found to be 21%.

As to `CC(C)c1cnc(-c2ccc(F)cc2)nc1Nc1ccnc2[nH]cc(N3CCNC[C@H]3C)c12` [Compound No. 8, N-(2-(4-fluorophenyl)-5-isopropylpyrimidin-4-yl)-3-(2-methylpiperazin-1-yl)-1H-pyrrolo [2,3-b] pyridin-4-amine hydrochloride], the IC50 is 95 nM in experiment [1] (Table 3, read-out: IC50 (ALK5)); 61 nM in experiment [2]; above 30 µM in experiment [3]; above 30 µM in experiment [4].

As for `CC(C)c1cnc(-c2ccc(F)cc2)nc1Nc1ccnc2[nH]cc(N3CCN[C@H](C)C3)c12` [Compound No. 9, (R)—N-(2-(4-fluorophenyl)-5-isopropylpyrimidin-4-yl)-3-(3-methylpiperazin-1-yl)-1H-pyrrolo[2,3-b]pyridin-4-amine hydrochloride], the IC50 in experiment [1] (Table 4, read-out: ALK5 IC50) was determined as 103 nM; in experiment [3] it was 3.28 µM; in experiment [4] it was 3.53 µM. In addition, in experiment [2] (setting [6]), the inhibition at 0.1 µM is 52%.

For `CC(C)c1cnc(-c2ccc(F)cc2)nc1Nc1ccnc2[nH]cc(N3CCN[C@@H](C)C3)c12` [Compound No. 11, (S)—N-(2-(4-fluorophenyl)-5-isopropylpyrimidin-4-yl)-3-(3-methylpiperazin-1-yl)-1H-pyrrolo[2,3-b]pyridin-4-amine hydrochloride], the IC50 in experiment [1] (Table 4, read-out: ALK5 IC50) stood at 147 nM; in experiment [3], 2.81 µM; in experiment [4], 2.04 µM. Besides, the inhibition at 0.1 µM in experiment [2] (setting [6]) was 18%.

Consider `CC(C)c1cnc(-c2ccc(F)cc2)nc1Nc1ccnc2[nH]cc(-n3cncn3)c12` [Compound No. 6, N-(2-(4-fluorophenyl)-5-isopropylpyrimidin-4-yl)-3-(1H-1,2,4-triazol-1-yl)-1H-pyrrolo [2,3-b] pyridin-4-amine hydrochloride], for which the values for the inhibition at 0.1 µM in experiment [1] and in experiment [2] (setting [5]) were 97% and 0%, respectively. Further, the IC50 in experiment [3] came to 0.645 µM; in experiment [4], 0.655 µM.

Turning to `CC(C)c1ccc(-c2ccc(F)cc2)nc1Nc1ccnc2[nH]cc(C(=O)C(N)=O)c12` [Compound No. 27, 2-(4-(6-(4-fluorophenyl)-3-isopropylpyridin-2-ylamino)-1H-pyrrolo [2,3-b]pyridin-3-yl)-2-oxoacetamide hydrochloride], the IC50 in experiment [1] (Table 4, read-out: ALK5 IC50) was above 5000 nM; in experiment [3], above 30 µM; in experiment [4], above 30 µM. The inhibition at 0.1 µM in experiment [2] (setting [6]) stood at 0%.

(Values after patent US20200171030A1, “DUAL INHIBITORS OF ALK5 AND P38A MAP KINASE” (INTEGRAL BIOSCIENCES PRIVATE LIMITED, priority 2018, published 2020).)
